Columns and labels:
[1] = tested on: Zucker fatty rats; assay: Adverse events and feed intake during administration to Zucker fatty rats; format: in vivo, rat
Description: Rats were divided into the following four groups (six rats per group) so that body weights, plasma total cholesterol levels, and plasma triglyceride levels were averaged in the groups: a first group (control), a second group (administration of compound A (1 mg/kg)), a third group (administration of compound A (3 mg/kg)), and a fourth group (administration of fenofibrate (300 mg/kg)). A group of five Zucker lean rats was employed as a negative control group.
Each drug was orally administered once a day (in the morning) for continuous 14 days. A 0.5 mass % aqueous methylcellulose solution (2 mL/kg) was orally administered to the rats of the first group (control).
However, from 11 days to 14 days after administration, feed intake was reduced by 14% in the rats of the group of fenofibrate administration, which raised a concern about the toxicity of fenofibrate. Even under such a situation, fat weight tended to decrease only slightly.

[2] = tested on: KK-Ay mice; assay: Fat weight reducing effect on obesity model mice (KK-Ay mice); format: in vivo, mouse; settings: oral once a day for 35 days
Description: This test employed compound A, as well as (R)2-[3-[ [N-(5-fluorobenzoxazol2-yl)-N2-phenoxyethyl]aminomethyl]phenoxy]butyric acid (hereinafter will be referred to as “compound B”), which is an optically active substance of the compound disclosed in Example 229 in Patent Document 2. Compound A, compound B, or fenofibrate was administered to KK-Ay mice, and the effects of the compound on epididymal fat weight and mesenteric fat weight were determined through the below-described methods.
Method: Male KK-Ay mice (KK-Ay/TaJcl) were purchased from Clea Japan, Inc. (10 weeks old upon test). Each compound was orally administered to mice once a day for […]. Throughout the test period, the mice were reared in a rearing cage (light-dark cycle (light period by interior lighting: 7:00 a.m. to 7:00 p.m.), temperature: 23±3° C., humidity: 55+15%) under conditions where solid feed (CE-2, product of Oriental Yeast Co., Ltd.) and tap water were fed ad libitum.
Each of compound A, compound B, and fenofibrate was suspended in a 0.5 mass % aqueous solution of methylcellulose (Metolose (registered trademark), SM-400, product of Shin-Etsu Chemical Co., Ltd.) so that the dose of the aqueous solution was adjusted to 5 mL/kg. The resultant suspension was refrigerated in a light-shielding bottle at 4° C., and drug preparation was carried out every seven days.
(§1) Animals were divided into the following four groups (six animals per group): a first group (control), a second group (administration of compound A (1 mg/kg)), a third group (administration of compound B (3 mg/kg)), and a fourth group (administration of fenofibrate (300 mg/kg)).
(§2) Each drug was orally administered once a day (in the morning) for 35 days. A 0.5 mass % aqueous methylcellulose solution was orally administered (5 mL/kg) to the animals of the first group (control).
After completion of administration, epididymal fat and mesenteric fat were removed and weighed.
The results were represented as percent reduction (mean value) in fat weight in each compound administration group with respect to the control group.

[3] = tested on: rat model; settings: cited from earlier work
[4] = tested on: FGF21; assay: Plasma FGF21 level in Zucker fatty rats, ELISA; format: in vivo, rat; settings: compound A 3 mg/kg, oral once a day for 14 days, day 14
Description: (§3) This test employed (R)-2-[3-[[N-(benzoxazol2-yl) -N-3-(4-methoxyphenoxy)propyl]aminomethyl]phenoxy]butyric acid (hereinafter will be referred to as “compound A”), which is an optically active substance of the compound disclosed in Example 14 in Patent Document 2. Compound A or fenofibrate was administered to Zucker fatty rats, and the effects of the compound on plasma triglyceride (TG) level, plasma FGF21 level, and epididymal fat weight were determined through the below-described methods.
(§4) Hyperlipidemic Zucker fatty rats with obesity due to overeating (Crlj: ZUC-Lepr Genotype: fa/fa) and Zucker lean rats without obesity (Crlj: ZUC-Lepr Genotype: fa/+ or +/+) were purchased from Charles River Laboratories Japan Inc. (eight weeks old upon test).
(§5) Throughout the test period, the rats were reared in a rearing cage (light-dark cycle (light period by interior lighting: 7:00 a.m. to 7:00 p.m.), temperature: 23+3° C., humidity: 55±15%) under conditions where solid feed (CE-2, product of Oriental Yeast Co., Ltd.) and tap water were fed ad libitum. […]
(§6) On day 14 after initiation of administration, blood was collected after four-hour fasting following administration, and plasma triglyceride level and plasma FGF21 level were measured through an enzymatic method and ELISA (Human FGF-21 ELISA Kit, product of Biovender), respectively. […]

[5] = tested on: Zucker fatty rats; assay: Plasma triglyceride (TG) level in Zucker fatty rats, enzymatic method; format: in vivo, rat; settings: compound A 3 mg/kg, oral once a day for 14 days, blood on day 14 after four-hour fasting
Description: as §3, §4, §5, §6

[6] = tested on: KK-Ay mice; settings: mouse, in vivo, 1 mg/kg
Description: as §1, §2

[7] = tested on: Zucker fatty rats; assay: Epididymal fat weight (indicator of visceral fat weight) in Zucker fatty rats; format: in vivo, rat; settings: compound A 3 mg/kg, oral once a day for 14 days
Description: as §3, §4, §5, §6

With `CC(C)OC(=O)C(C)(C)Oc1ccc(C(=O)c2ccc(Cl)cc2)cc1` [Fenofibrate, fenofibrate] the “feed intake compared with control group” value ([1]; fenofibrate 300 mg/kg, Zucker fatty rats, for 10 days after administration) was “maintained equal to that in the rats of the control group”, the “reduction of feed intake” value ([1]; fenofibrate 300 mg/kg, Zucker fatty rats, from 11 days to 14 days after administration) was 14% and the “Epididymal fat weight, percent reduction (mean value) with respect to the control group” value ([2]; 300 mg/kg) was 15%. For the same compound, the “Mesenteric fat weight, percent reduction (mean value) with respect to the control group” value (shortened to “Mesenteric fat weight, percent reduction”) ([2]; 300 mg/kg) was 13%, the “adverse events at high dose” value ([3]; high dose of fenofibrate, rat model) was “adverse events (e.g., decrease in hemoglobin, or necrosis of liver cells) occur in the model” and the adverse events ([3]; rats, dose of 30 mg/kg or more) was “various adverse events occur in the rats”.

In the case of `CC[C@@H](Oc1cccc(CN(CCOc2ccccc2)c2nc3cc(F)ccc3o2)c1)C(=O)O` [Compound B, (R)2-[3-[ [N-(5-fluorobenzoxazol2-yl)-N2-phenoxyethyl]aminomethyl]phenoxy]butyric acid], the “Mesenteric fat weight, percent reduction” value ([2]; 3 mg/kg) was 17%.

In the case of `CC[C@@H](Oc1cccc(CN(CCCOc2ccc(OC)cc2)c2nc3ccccc3o2)c1)C(=O)O` [Compound A, (R)-2-[3-[[N-(benzoxazol2-yl) -N-3-(4-methoxyphenoxy)propyl]aminomethyl]phenoxy]butyric acid], the “plasma FGF21 level versus control group” value [4] was “significantly (p<0.001) higher than that in the control group”, the “plasma triglyceride level versus control group” value [5] was “significantly (p<0.05) lower than that in the control group” and the “adverse events during the period of administration” value ([1]; rat, in vivo, po) was “adverse events were not particularly observed”. For the same compound, the “Epididymal fat weight, percent reduction (mean value) with respect to the control group” value ([2]; 1 mg/kg) was 27%, the “Mesenteric fat weight, percent reduction” value ([2]; 1 mg/kg) was 20% and the “adverse events during the period of administration” value [6] was “adverse events were not particularly observed”. For the same compound, the “epididymal fat weight versus control group” value [7] was “considerably and statistically significantly lower than that in the control group”.

— US20250268868A1, “AGENT FOR REDUCING VISCERAL FAT WEIGHT” (Kowa Co., Ltd., priority 2009, published 2025)
